# In US8815921B2, “Active substance combination based on trifluorobutinyl compounds and exhibiting nematicidal and insecticidal properties” (priority 2003, dated 2014):
# Where “and” joins values, the source holds several entries; their conditions need not be identical. Identical values can stand only once.
# Assays:
# Assay type in all cases: in vivo
# [1] = test system: green peach aphid (Myzus persicae); assay: Myzus Test
# Experimental: (§1) To produce a suitable preparation of active compound, 1 part by weight of active compound is mixed with the stated amounts of solvent and emulsifier, and the concentrate is diluted with emulsifier containing water to the desired concentration.
# Cabbage leaves (Brassica oleracea), which are heavily infested by the green peach aphid (Myzus persicae) are treated by being dipped into the preparation of active compound of the desired concentration. After the desired period of time, the kill in % is determined. 100% means that all aphids have been killed; 0% means that none of the aphids has been killed. The kill rates determined are inserted into Colby's formula (see sheet 1).
# [2] = test system: larvae of the mustard beetle (Phaedon cochleariae); assay: Phaedon-Larvae Test; details: cabbage leaf dip
# Experimental: as §1
# (§2) Cabbage leaves (Brassica oleracea) are treated by being dipped into the preparation of active compound of the desired concentration and are populated with larvae of the mustard beetle (Phaedon cochleariae) while the leaves are still moist. After the desired period of time, the kill in percent is determined. 100% means that all beetle larvae have been killed; 0% means that none of the beetle larvae has been killed. The kill rates determined are inserted into Colby's formula (see sheet 34).
# [3] = test system: caterpillars of the army worm (Spodoptera frugiperda); assay: Spodoptera frugiperda Test
# Experimental: as §1
# as §2, with “caterpillars” for “larvae”, “army worm (Spodoptera frugiperda)” for “mustard beetle (Phaedon cochleariae)”, “caterpillars” for “beetle larvae”
# [4] = test system: caterpillars of the diamondback moth (Plutella xylostella, sensitive strain); assay: Plutella Test, sensitive strain; details: for Kill rate [%] after 6 days: 20 ppm
# Experimental: as §1
# as §2, with “caterpillars” for “larvae”, “diamondback moth (Plutella xylostella, sensitive strain)” for “mustard beetle (Phaedon cochleariae)”, “caterpillars” for “beetle larvae”
molecule,measurement,setting,value
Cc1c(F)c(F)c(COC(=O)[C@@H]2[C@H](/C=C(\Cl)C(F)(F)F)C2(C)C)c(F)c1F (racemic) [tefluthrin],Kill rate [%] after 1 day,[1]; 4 ppm,0%
same,Kill rate [%] after 3 days,[2]; 4 ppm,75%
same,Kill rate [%] after 3 days,[3]; 0.8 ppm,40%
same,Kill rate [%] after 3 days,[4]; 0.16 ppm,20%
O=[N+]([O-])NC1=NCCN1Cc1ccc(Cl)nc1 [imidacloprid],Kill rate [%] after 3 days,[2]; 20 ppm,45%
same,Kill rate [%] after 6 days,[4],5%
"CCOC(=O)OC1=C(c2cc(C)ccc2C)C(=O)NC12CCC(OC)CC2 (stereo not drawn) [(IIA), carboxylic acid, 3-(2,5-dimethylphenyl)-8-methoxy-2-oxo-1-azaspiro[4.5]dec-3-en-4-yl ethyl ester, (9Cl)]",Kill rate [%] after 6 days,[1]; 4 ppm,55%
same,Kill rate [%] after 6 days,[3]; 100 ppm,30%
same,Kill rate [%] after 3 days,[4]; 4 ppm,95%
CCOP(=S)(Oc1cnc(C(C)(C)C)nc1)OC(C)C (stereo not drawn) [tebupirimfos],Kill rate [%] after 6 days,[1]; 20 ppm,35%
same,Kill rate [%] after 6 days,[3]; 0.8 ppm,0%
same,Kill rate [%] after 3 days,[4]; 0.8 ppm,0%
CNC(=O)O/N=C/C(C)(C)SC [aldicarb],Kill rate [%] after 3 days,[2]; 20 ppm,35%
same,Kill rate [%] after 6 days,[4],0%
O=S(=O)(CCC(F)=C(F)F)c1ncc(Cl)s1 [(IC)],Kill rate [%] after 1 day,"[1]; 100 ppm, cabbage leaf dip",0%
same,Kill rate [%] after 6 days,[1]; 100 ppm,0%
same,Kill rate [%] after 3 days,[2]; 500 ppm,0%
same,Kill rate [%] after 3 days,"[3]; 500 ppm, cabbage leaf dip",0%
same,Kill rate [%] after 6 days,[3]; 500 ppm,20%
same,Kill rate [%] after 3 days,"[4]; 500 ppm, cabbage leaf dip",0% and 5%
N#Cc1nn(-c2c(Cl)cc(C(F)(F)F)cc2Cl)c(N)c1[S+]([O-])C(F)(F)F (stereo not drawn) [fipronil],Kill rate [%] after 6 days,[3]; 0.8 ppm,0%
CN/C(=N\[N+](=O)[O-])NCc1cnc(Cl)s1 [clothianidin],Kill rate [%] after 3 days,[2]; 4 ppm,15%
same,Kill rate [%] after 3 days,[3]; 4 ppm,85%
spinosad,Kill rate [%] after 3 days,[3]; 0.16 ppm,60%
